Experiments:
[1] = molecular target: T1, entrapped dihydrofolate reductase (DHFR) (Escherichia coli, UniProt P0ABQ4); experiment: FAC/ESI-MS/MS on monolithic column with entrapped DHFR; type: binding, E. coli; conditions: DHFR loaded column (25 pmol initial loading), compounds infused at 50 nM, 2 mM ammonium acetate, ESI/MS/MS detection
T1 construct: made in house

[2] = molecular target: dihydrofolate reductase (DHFR) (Escherichia coli, UniProt P0ABQ4); conditions: cited from earlier work

For `CC(=O)NC(=O)[C@H](O)[C@@H](O)[C@H](O)[C@H](O)CO` [N-acetyl-gluconamide], the “retention (elution) time” value [1] was 1.5 min.

For `Nc1nc2ncc(CNc3ccc(C(=O)N[C@@H](CCC(=O)O)C(=O)O)cc3)nc2c(=O)[nH]1` [folic acid], the Kd [2] is given as 11 µM and the “retention (elution) time” value [1] is given as 3 min.
